Source: patent US20160024051A1, “SALTS AND SOLID FORMS OF ISOQUINOLINONES AND COMPOSITION COMPRISING AND METHODS OF USING THE SAME” (INFINITY PHARMACEUTICALS, INC., priority 2013, published 2016)

Tests used:
[1] = PK evaluation in CD-1 mouse; type: in vivo
Method: (§1) For example, Compound 1 bis-hydrogen sulfate monohydrate was evaluated in CD-1 mouse, Wistar rat, Cyno monkey, and Beagle dog. Cross species allometric scaling of CL (drug clearance) and Vss (volume at steady state) predicts low CL, high Vss and long T112 for Compound 1 in humans.

[2] = PK evaluation in Wistar rat; type: in vivo
Method: as §1

[3] = PK evaluation in Cyno monkey; type: in vivo
Method: as §1

[4] = PK evaluation in Beagle dog; type: in vivo
Method: as §1

[5] = Storage at 25° C./93% RH for 1 week, re-analysis by XRPD/HPLC; type: physicochemical
[6] = Gravimetric vapour sorption (GVS); type: physicochemical
Method: Sorption isotherms were obtained using a Hiden IGASorp moisture sorption analyser, controlled by CFRSorp software. The sample temperature was maintained at 25° C. by a Huber re-circulating water bath. The humidity was controlled by mixing streams of dry and wet nitrogen, with a total flow rate of 250 ml/min. The relative humidity (RH) was measured by a calibrated Vaisala RH probe (dynamic range of 0-95% RH), located near the sample. The weight change, (mass relaxation) of the sample as a function of % RH was constantly monitored by the microbalance (accuracy ±0.001 mg). Typically 10-20 mg of sample was placed in a tared mesh stainless steel basket under ambient conditions. The sample was loaded and unloaded at 40% RH and 25° C. (typical room conditions). A moisture sorption isotherm was performed as outlined below (2 scans giving 1 complete cycle). The standard isotherm was performed at 25° C. at 10% RH intervals over a 0-90% RH range.
The software uses a least squares minimisation procedure together with a model of the mass relaxation, to predict an asymptotic value. The measured mass relaxation value must be within 5% of that predicted by the software, before the next % RH value is selected. The minimum equilibration time was set to 1 hour and the maximum to 4 hours. The sample was recovered after completion of the isotherm and re-analysed by XRPD.

[7] = Thermodynamic aqueous solubility; type: physicochemical
[8] = Storage at 40° C./75% RH (elevated humidity) for 1 week, re-analysis by XRPD/HPLC
Method: The crystalline solids were filtered, dried at ambient conditions, and stored at 40° C./75% RH for 1 week and analyzed by ^1H NMR/IC.
(§2) Samples from the screen using amorphous free base Compound 1 were analysed by ^1H-NMR and DSC, and re-analysis by XRPD was also carried out after drying at 50° C./vacuum and storage at 40° C./75% RH (the same sample was dried and stored at elevated humidity).

[9] = Drying at 50° C./vacuum, re-analysis by XRPD; type: physicochemical
Method: as §2

[10] = Polymorphism study: maturation (temperature cycling RT to 50° C.) in solvents, XRPD; type: physicochemical; details: three days; listed as amorphous material
Method: One of 21 solvents was added to each vial in a number of aliquots (up to 30 volumes), with shaking. All the samples were then placed under maturation between RT to 50° C. (4 hours at each temperature) for 3 days. After maturation the samples were analysed by XRPD. Clear solutions were cooled to −20° C. (freezer). If no precipitation occurred samples were evaporated at RT.
Samples were placed under maturation between RT-50° C. (4 hours cycle) for 3 days. After maturation the samples were analyzed by XRPD. Clear solutions were then cooled to −20° C. (freezer). If no precipitation occurred, samples were evaporated at RT.
The corresponding solvents and solvent mixtures were added in portions of (a total of) 5, 10, 20, and 30 volumes at 50° C., with shaking, aiming for clear solutions. After each addition, the vials were allowed to shake for 20 minutes, after which observations were made. Solutions were allowed to evaporate, whereas slurries were set for 8 hour temperature cycling maturation, between RT and 50° C., for 5 days.
The oils obtained by solvent evaporation were used for the maturation screen. Anhydrous solvents (5 volumes; 100 μL) were used in order to minimise the amount of water present. Any solutions were allowed to slowly evaporate, whereas slurries were set for 8 hour temperature cycling maturation, between RT and 50° C. […] These were matured for a further 24 hours before performing XRPD analysis.
The selected solvents and solvent mixtures (5 to 20 volumes) were added with stirring. Any solutions were allowed to slowly evaporate, whereas slurries were set for 8 hour temperature cycling maturation, between RT and 50° C., for 2 days.
Crystals were ground in order to analyse them by XRPD. Suspensions were set for temperature cycling for a total of five days after which time XRPD analysis was carried out.

Question: What does the source list for COc1cc(-c2cccc3cc([C@H](C)Nc4nc(N)ncc4C#N)n(-c4ccccc4)c(=O)c23)ccn1.O.O=S(=O)(O)O.O=S(=O)(O)O?
Answer: AUClast ([1]; IV, 5 mg/kg): 1012 ng·h/mL; Cl ([1]; IV, 5 mg/kg): 82 mL/min/kg; Cmax ([1]; IV, 5 mg/kg): 1417 ng/mL; T1/2 ([1]; IV, 5 mg/kg): 0.6 h; Vss ([1]; IV, 5 mg/kg): 2.3 L/kg; AUClast ([1]; PO, 10 mg/kg): 856 ng·h/mL; Cmax ([1]; PO, 10 mg/kg): 647 ng/mL; Foral ([1]; PO, 10 mg/kg): 45%; T1/2 ([1]; PO, 10 mg/kg): 1.7 h; Tmax ([1]; PO, 10 mg/kg): 0.25 h; AUClast ([2]; IV, 2 mg/kg): 2061 ng·h/mL; Cl ([2]; IV, 2 mg/kg): 17 mL/min/kg; Cmax ([2]; IV, 2 mg/kg): 799 ng/mL; T1/2 ([2]; IV, 2 mg/kg): 2.3 h; Vss ([2]; IV, 2 mg/kg): 2.4 L/kg; AUClast ([2]; PO, 10 mg/kg): 5968 ng·h/mL; Cmax ([2]; PO, 10 mg/kg): 787 ng/mL; Foral ([2]; PO, 10 mg/kg): 58%; T1/2 ([2]; PO, 10 mg/kg): 3.3 h; Tmax ([2]; PO, 10 mg/kg): 1.3 h; AUClast ([3]; IV, 1 mg/kg): 2534 ng·h/mL; Cl ([3]; IV, 1 mg/kg): 6.5 mL/min/kg; Cmax ([3]; IV, 1 mg/kg): 581 ng/mL; T1/2 ([3]; IV, 1 mg/kg): 4.1 h; Vss ([3]; IV, 1 mg/kg): 1.6 L/kg; AUClast ([3]; PO, 5 mg/kg): 12790 ng·h/mL; Cmax ([3]; PO, 5 mg/kg): 2365 ng/mL; Foral ([3]; PO, 5 mg/kg): 100%; T1/2 ([3]; PO, 5 mg/kg): 4.0 h; Tmax ([3]; PO, 5 mg/kg): 2 h; AUClast ([4]; IV, 1 mg/kg): 4746 ng·h/mL; Cl ([4]; IV, 1 mg/kg): 2.5 mL/min/kg; Cmax ([4]; IV, 1 mg/kg): 424 ng/mL; T1/2 ([4]; IV, 1 mg/kg): 14.6 h; Vss ([4]; IV, 1 mg/kg): 2.9 L/kg; AUClast ([4]; PO, 5 mg/kg): 17626 ng·h/mL; Cmax ([4]; PO, 5 mg/kg): 1830 ng/mL; Foral ([4]; PO, 5 mg/kg): 74%; T1/2 ([4]; PO, 5 mg/kg): 8.0 h; Tmax ([4]; PO, 5 mg/kg): 2.3 h

Question: For COc1cc(-c2cccc3cc([C@H](C)Nc4nc(N)ncc4C#N)n(-c4ccccc4)c(=O)c23)ccn1, which “Storage 25° C./93% RH for 1 week: HPLC Purity” value ([5]; salts scaled-up at 0.5 gram) is on record?
Answer: HPLC Purity: Unchanged

Question: What about the “Storage 25° C./93% RH for 1 week: XRPD (D8)” value ([5]; salts scaled-up at 0.5 gram) of the same compound?
Answer: XRPD (D8): Unchanged

Question: What about the “XRPD post GVS (C2)” value [6] of the same compound?
Answer: Unchanged

Question: And the “GVS Single cycle” value ([6]; hygroscopicity in words, 25° C., listed as 1-2-Ethanedisulfonic acid)?
Answer: Moderately hygroscopic

Question: What about the “XRPD (C2) post Aqueous solubility” value ([7]; residual solid) of the same compound?
Answer: Low cryst. 1,2-ethanedisulfonic

Question: And the “Thermodynamic aqueous solubility” value ([7]; salts scaled-up at 0.5 gram, listed as 1-2-Ethanedisulfonic acid)?
Answer: 6200 µg/mL

Question: What about the “Storage 40° C./75% RH for 1 week: HPLC Purity” value ([8]; salts scaled-up at 0.5 gram) of the same compound?
Answer: HPLC Purity: Unchanged

Question: And the “Storage 40° C./75% RH for 1 week: XRPD (D8)” value ([8]; salts scaled-up at 0.5 gram)?
Answer: XRPD (D8): Unchanged

Question: Which results are given for COc1cc(-c2cccc3cc([C@H](C)Nc4nc(N)ncc4C#N)n(-c4ccccc4)c(=O)c23)ccn1 [Form 5 of the free base of Compound 1]?
Answer: XRPD after drying at 50° C./vacuum ([9]; screening sample from 2-MeTHF): No changes; XRPD after drying at 50° C./vacuum ([9]; screening sample from Acetone): No changes; XRPD after drying at 50° C./vacuum ([9]; screening sample from Acetonitrile): No changes; XRPD after drying at 50° C./vacuum ([9]; screening sample from DCM): No changes; XRPD after drying at 50° C./vacuum ([9]; screening sample from DCM:MeOH 1:1): No changes; XRPD after drying at 50° C./vacuum ([9]; screening sample from DME): No changes; XRPD after drying at 50° C./vacuum ([9]; screening sample from EtOAc): No changes; XRPD after drying at 50° C./vacuum ([9]; screening sample from EtOH): No changes; XRPD after drying at 50° C./vacuum ([9]; screening sample from EtOH/5% water): No changes; XRPD after drying at 50° C./vacuum ([9]; screening sample from IPA): No changes; XRPD after drying at 50° C./vacuum ([9]; screening sample from MIBK): No changes; XRPD after drying at 50° C./vacuum ([9]; screening sample from MeCN/5% water): No changes; XRPD after drying at 50° C./vacuum ([9]; screening sample from MeOH): No changes; XRPD after drying at 50° C./vacuum ([9]; screening sample from TBME): No changes; XRPD after drying at 50° C./vacuum ([9]; screening sample from THF): No changes; XRPD after drying at 50° C./vacuum ([9]; screening sample from THF/5% water): No changes; XRPD after Storage at 40° C./75% RH ([8]; screening sample from 2-MeTHF, after drying): No changes; XRPD after Storage at 40° C./75% RH ([8]; screening sample from Acetone, after drying): No changes; XRPD after Storage at 40° C./75% RH ([8]; screening sample from Acetonitrile, after drying): No changes; NMR; XRPD after Storage at 40° C./75% RH ([8]; screening sample from DCM, after drying): No changes; XRPD after Storage at 40° C./75% RH ([8]; screening sample from DCM:MeOH 1:1, after drying): No changes; XRPD after Storage at 40° C./75% RH ([8]; screening sample from DME, after drying): No changes; XRPD after Storage at 40° C./75% RH ([8]; screening sample from EtOAc, after drying): No changes; XRPD after Storage at 40° C./75% RH ([8]; screening sample from EtOH, after drying): No changes; XRPD after Storage at 40° C./75% RH ([8]; screening sample from EtOH/5% water, after drying): No changes; XRPD after Storage at 40° C./75% RH ([8]; screening sample from IPA, after drying): No changes; XRPD after Storage at 40° C./75% RH ([8]; screening sample from MIBK, after drying): No changes; XRPD after Storage at 40° C./75% RH ([8]; screening sample from MeCN/5% water, after drying): No changes; XRPD after Storage at 40° C./75% RH ([8]; screening sample from MeOH, after drying): No changes; XRPD after Storage at 40° C./75% RH ([8]; screening sample from TBME, after drying): No changes; XRPD after Storage at 40° C./75% RH ([8]; screening sample from THF, after drying): No changes; NMR; XRPD after Storage at 40° C./75% RH ([8]; screening sample from THF/5% water, after drying): No changes

Question: Which “Stability at 25° C./93% RH” value ([5]; after 1 week, XRPD) does the source give for COc1cc(-c2cccc3cc([C@H](C)Nc4nc(N)ncc4C#N)n(-c4ccccc4)c(=O)c23)ccn1 [amorphous free base of Compound 1] here?
Answer: No changes after 1 week

Question: And the “XRPD form after maturation in acetic acid: water 1:1” value [10]?
Answer: Form 6

Question: And the “Stability at 40° C./75% RH” value ([8]; after 1 week, XRPD)?
Answer: No changes after 1 week

Question: What about the “solid form after storage at elevated humidity” value ([8]; elevated humidity conditions, not specified in the sentence) of the same compound?
Answer: No crystallisation
